Tests used:
Set-up in all cases: dose 0.5-1 mg/kg, route intravenous
[1] = test system: Spleen; test: Biodistribution in Sprague-Dawley rat spleen assessed per organ at 0.5 to 1 mg/kg, iv after 1 hr by gamma-well counting analysis; format: ADME, organism-based; conditions: in vivo
[2] = test system: Bone; test: Biodistribution in Sprague-Dawley rat bone assessed per organ at 0.5 to 1 mg/kg, iv after 1 hr by gamma-well counting analysis; format: ADME, organism-based, Bone element; conditions: in vivo
[3] = test system: Kidney; test: Biodistribution in Sprague-Dawley rat kidney at 0.5 to 1 mg/kg, iv after 15 mins by gamma-well counting analysis; format: ADME, organism-based; conditions: in vivo, 0.25 h
[4] = test system: Bone; test: Biodistribution in Sprague-Dawley rat bone assessed per organ at 0.5 to 1 mg/kg, iv after 15 mins by gamma-well counting analysis; format: ADME, organism-based, Bone element; conditions: in vivo, 0.25 h
[5] = test system: Muscle tissue; test: Biodistribution in Sprague-Dawley rat muscle at 0.5 to 1 mg/kg, iv after 15 mins by gamma-well counting analysis; format: ADME, organism-based; conditions: in vivo, 0.25 h
[6] = test system: Lung; test: Biodistribution in Sprague-Dawley rat lung assessed per organ at 0.5 to 1 mg/kg, iv after 15 mins by gamma-well counting analysis; format: ADME, organism-based; conditions: in vivo, 0.25 h
[7] = test system: Kidney; test: Biodistribution in Sprague-Dawley rat kidney at 0.5 to 1 mg/kg, iv after 1 hr by gamma-well counting analysis; format: ADME, organism-based; conditions: in vivo
[8] = test system: Small intestine; test: Biodistribution in Sprague-Dawley rat small intestine assessed per organ at 0.5 to 1 mg/kg, iv after 15 mins by gamma-well counting analysis; format: ADME, organism-based; conditions: in vivo, 0.25 h
[9] = test system: Stomach; test: Biodistribution in Sprague-Dawley rat stomach assessed per organ at 0.5 to 1 mg/kg, iv after 1 hr by gamma-well counting analysis; format: ADME, organism-based; conditions: in vivo
[10] = test system: Large intestine; test: Biodistribution in Sprague-Dawley rat large intestine assessed per organ at 0.5 to 1 mg/kg, iv after 15 mins by gamma-well counting analysis; format: ADME, organism-based; conditions: in vivo, 0.25 h
[11] = test system: Muscle tissue; test: Biodistribution in Sprague-Dawley rat muscle at 0.5 to 1 mg/kg, iv after 1 hr by gamma-well counting analysis; format: ADME, organism-based; conditions: in vivo
[12] = test system: Lung; test: Biodistribution in Sprague-Dawley rat lung at 0.5 to 1 mg/kg, iv after 15 mins by gamma-well counting analysis; format: ADME, organism-based; conditions: in vivo, 0.25 h
[13] = test system: Blood; test: Biodistribution in Sprague-Dawley rat blood at 0.5 to 1 mg/kg, iv after 15 mins by gamma-well counting analysis; format: ADME, organism-based; conditions: in vivo, 0.25 h
[14] = Biodistribution in Sprague-Dawley rat fat and fur assessed per organ at 0.5 to 1 mg/kg, iv after 1 hr by gamma-well counting analysis; format: ADME, organism-based, Adipose tissue; conditions: in vivo
[15] = test system: Small intestine; test: Biodistribution in Sprague-Dawley rat small intestine assessed per organ at 0.5 to 1 mg/kg, iv after 1 hr by gamma-well counting analysis; format: ADME, organism-based; conditions: in vivo
[16] = test system: Thyroid gland; test: Biodistribution in Sprague-Dawley rat thyroid assessed per organ at 0.5 to 1 mg/kg, iv after 15 mins by gamma-well counting analysis; format: ADME, organism-based; conditions: in vivo, 0.25 h
[17] = test system: Stomach; test: Biodistribution in Sprague-Dawley rat stomach assessed per organ at 0.5 to 1 mg/kg, iv after 15 mins by gamma-well counting analysis; format: ADME, organism-based; conditions: in vivo, 0.25 h
[18] = test system: Kidney; test: Biodistribution in Sprague-Dawley rat kidney assessed per organ at 0.5 to 1 mg/kg, iv after 15 mins by gamma-well counting analysis; format: ADME, organism-based; conditions: in vivo, 0.25 h
[19] = test system: Spleen; test: Biodistribution in Sprague-Dawley rat spleen at 0.5 to 1 mg/kg, iv after 15 mins by gamma-well counting analysis; format: ADME, organism-based; conditions: in vivo, 0.25 h
[20] = test system: Kidney; test: Biodistribution in Sprague-Dawley rat kidney assessed per organ at 0.5 to 1 mg/kg, iv after 1 hr by gamma-well counting analysis; format: ADME, organism-based; conditions: in vivo
[21] = test system: Blood; test: Biodistribution in Sprague-Dawley rat blood assessed per organ at 0.5 to 1 mg/kg, iv after 15 mins by gamma-well counting analysis; format: ADME, organism-based; conditions: in vivo, 0.25 h
[22] = test system: Heart; test: Biodistribution in Sprague-Dawley rat heart assessed per organ at 0.5 to 1 mg/kg, iv after 15 mins by gamma-well counting analysis; format: ADME, organism-based; conditions: in vivo, 0.25 h
[23] = test system: Heart; test: Biodistribution in Sprague-Dawley rat heart at 0.5 to 1 mg/kg, iv after 15 mins by gamma-well counting analysis; format: ADME, organism-based; conditions: in vivo, 0.25 h
[24] = test system: Thyroid gland; test: Biodistribution in Sprague-Dawley rat thyroid at 0.5 to 1 mg/kg, iv after 1 hr by gamma-well counting analysis; format: ADME, organism-based; conditions: in vivo
[25] = test system: Heart; test: Biodistribution in Sprague-Dawley rat heart assessed per organ at 0.5 to 1 mg/kg, iv after 1 hr by gamma-well counting analysis; format: ADME, organism-based; conditions: in vivo
[26] = test system: Liver; test: Biodistribution in Sprague-Dawley rat liver assessed per organ at 0.5 to 1 mg/kg, iv after 1 hr by gamma-well counting analysis; format: ADME, organism-based; conditions: in vivo
[27] = test system: Muscle tissue; test: Biodistribution in Sprague-Dawley rat muscle assessed per organ at 0.5 to 1 mg/kg, iv after 1 hr by gamma-well counting analysis; format: ADME, organism-based; conditions: in vivo
[28] = test system: Liver; test: Biodistribution in Sprague-Dawley rat liver assessed per organ at 0.5 to 1 mg/kg, iv after 15 mins by gamma-well counting analysis; format: ADME, organism-based; conditions: in vivo, 0.25 h
[29] = test system: Lung; test: Biodistribution in Sprague-Dawley rat lung at 0.5 to 1 mg/kg, iv after 1 hr by gamma-well counting analysis; format: ADME, organism-based; conditions: in vivo
[30] = test system: Liver; test: Biodistribution in Sprague-Dawley rat liver at 0.5 to 1 mg/kg, iv after 15 mins by gamma-well counting analysis; format: ADME, organism-based; conditions: in vivo, 0.25 h
[31] = test system: Spleen; test: Biodistribution in Sprague-Dawley rat spleen at 0.5 to 1 mg/kg, iv after 1 hr by gamma-well counting analysis; format: ADME, organism-based; conditions: in vivo
[32] = test system: Blood; test: Biodistribution in Sprague-Dawley rat blood at 0.5 to 1 mg/kg, iv after 1 hr by gamma-well counting analysis; format: ADME, organism-based; conditions: in vivo
[33] = Biodistribution in Sprague-Dawley rat fat and fur assessed per organ at 0.5 to 1 mg/kg, iv after 15 mins by gamma-well counting analysis; format: ADME, organism-based, Adipose tissue; conditions: in vivo, 0.25 h
[34] = test system: Spleen; test: Biodistribution in Sprague-Dawley rat spleen assessed per organ at 0.5 to 1 mg/kg, iv after 15 mins by gamma-well counting analysis; format: ADME, organism-based; conditions: in vivo, 0.25 h
[35] = test system: Bone; test: Biodistribution in Sprague-Dawley rat bone at 0.5 to 1 mg/kg, iv after 1 hr by gamma-well counting analysis; format: ADME, organism-based, Bone element; conditions: in vivo
[36] = test system: Thyroid gland; test: Biodistribution in Sprague-Dawley rat thyroid at 0.5 to 1 mg/kg, iv after 15 mins by gamma-well counting analysis; format: ADME, organism-based; conditions: in vivo, 0.25 h
[37] = test system: Blood; test: Biodistribution in Sprague-Dawley rat blood assessed per organ at 0.5 to 1 mg/kg, iv after 1 hr by gamma-well counting analysis; format: ADME, organism-based; conditions: in vivo
[38] = test system: Liver; test: Biodistribution in Sprague-Dawley rat liver at 0.5 to 1 mg/kg, iv after 1 hr by gamma-well counting analysis; format: ADME, organism-based; conditions: in vivo
[39] = test system: Heart; test: Biodistribution in Sprague-Dawley rat heart at 0.5 to 1 mg/kg, iv after 1 hr by gamma-well counting analysis; format: ADME, organism-based; conditions: in vivo
[40] = test system: Lung; test: Biodistribution in Sprague-Dawley rat lung assessed per organ at 0.5 to 1 mg/kg, iv after 1 hr by gamma-well counting analysis; format: ADME, organism-based; conditions: in vivo
[41] = test system: Bone; test: Biodistribution in Sprague-Dawley rat bone at 0.5 to 1 mg/kg, iv after 15 mins by gamma-well counting analysis; format: ADME, organism-based, Bone element; conditions: in vivo, 0.25 h
[42] = test system: Thyroid gland; test: Biodistribution in Sprague-Dawley rat thyroid assessed per organ at 0.5 to 1 mg/kg, iv after 1 hr by gamma-well counting analysis; format: ADME, organism-based; conditions: in vivo
[43] = test system: Large intestine; test: Biodistribution in Sprague-Dawley rat large intestine assessed per organ at 0.5 to 1 mg/kg, iv after 1 hr by gamma-well counting analysis; format: ADME, organism-based; conditions: in vivo
[44] = test system: Muscle tissue; test: Biodistribution in Sprague-Dawley rat muscle assessed per organ at 0.5 to 1 mg/kg, iv after 15 mins by gamma-well counting analysis; format: ADME, organism-based; conditions: in vivo, 0.25 h

Compound: CC(C)NCC(O)COc1ccc([125I])c2ccccc12 (racemic)
- Drug uptake [1]: 0.4 %ID
- Drug uptake [2]: 1.84 %ID
- Drug uptake [3]: 0.98 % ID/g
- Drug uptake [4]: 2.52 %ID
- Drug uptake [5]: 0.2 % ID/g
- Drug uptake [6]: 3.9 %ID
- Drug uptake [7]: 0.76 % ID/g
- Drug uptake [8]: 12.98 %ID
- Drug uptake [9]: 2.24 %ID
- Drug uptake [10]: 1.41 %ID
- Drug uptake [11]: 0.1 % ID/g
- Drug uptake [12]: 2.58 % ID/g
- Drug uptake [13]: 0.12 % ID/g
- Drug uptake [14]: 9.69 %ID
- Drug uptake [15]: 16.23 %ID
- Drug uptake [16]: 0.06 %ID
- Drug uptake [17]: 1.99 %ID
- Drug uptake [18]: 1.83 %ID
- Drug uptake [19]: 1.15 % ID/g
- Drug uptake [20]: 1.58 %ID
- Drug uptake [21]: 1.87 %ID
- Drug uptake [22]: 0.26 %ID
- Drug uptake [23]: 0.35 % ID/g
- Drug uptake [24]: 6.85 % ID/g
- Drug uptake [25]: 0.16 %ID
- Drug uptake [26]: 7.08 %ID
- Drug uptake [27]: 10.71 %ID
- Drug uptake [28]: 7.3 %ID
- Drug uptake [29]: 2.01 % ID/g
- Drug uptake [30]: 0.74 % ID/g
- Drug uptake [31]: 0.6 % ID/g
- Drug uptake [32]: 0.1 % ID/g
- Drug uptake [33]: 8.82 %ID
- Drug uptake [34]: 0.52 %ID
- Drug uptake [35]: 0.12 % ID/g
- Drug uptake [36]: 2.76 % ID/g
- Drug uptake [37]: 1.44 %ID
- Drug uptake [38]: 0.66 % ID/g
- Drug uptake [39]: 0.19 % ID/g
- Drug uptake [40]: 2.78 %ID
- Drug uptake [41]: 0.16 % ID/g
- Drug uptake [42]: 0.14 %ID
- Drug uptake [43]: 0.91 %ID
- Drug uptake [44]: 19.67 %ID
